In this assay the test system is L1210 leukemia ip in BDF1 mice, survival T/C. The assay can be described thus: NCI In Vivo Anticancer Drug Screen. Data for tumor model L1210 Leukemia (intraperitoneal) in B6D2F1 (BDF1) mice. Particulars: endpoint: mean survival time, higher = longer survival. An outline of the steps: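 Each compound was tested against a transplantable tumor grown in mice. The endpoint was survival, with treated animals benchmarked against vehicle controls as a simple ratio.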

Where [1] appears, read: dose: 50.0 mg/kg/injection, schedule: Q01DX009 (ip), vehicle: saline.
[2] abbreviates: dose: 100.0 mg/kg/injection, schedule: Q01DX009 (ip), vehicle: saline.
Setting [3] is: dose: 100.0 mg/kg/injection, schedule: Q04DX003 (ip), vehicle: saline.
[4] abbreviates: dose: 200.0 mg/kg/injection, schedule: Q01DX009 (ip), vehicle: saline.
The mark [5] stands for this setting: dose: 200.0 mg/kg/injection, schedule: Q04DX003 (ip), vehicle: saline.
Where [6] appears, read: dose: 50.0 mg/kg/injection, schedule: Q01DX009 (ip), vehicle: Klucel (hydroxypropylcellulose) (HPC).
The mark [7] stands for this setting: dose: 100.0 mg/kg/injection, schedule: Q01DX009 (ip), vehicle: Klucel (hydroxypropylcellulose) (HPC).
Setting [8] is: dose: 100.0 mg/kg/injection, schedule: Q04DX003 (ip), vehicle: Klucel (hydroxypropylcellulose) (HPC).
[9] abbreviates: dose: 200.0 mg/kg/injection, schedule: Q01DX009 (ip), vehicle: Klucel (hydroxypropylcellulose) (HPC).
[10] abbreviates: dose: 200.0 mg/kg/injection, schedule: Q04DX003 (ip), vehicle: Klucel (hydroxypropylcellulose) (HPC).
Setting [11] is: dose: 400.0 mg/kg/injection, schedule: Q01DX009 (ip), vehicle: Klucel (hydroxypropylcellulose) (HPC).
Where [12] appears, read: dose: 400.0 mg/kg/injection, schedule: Q04DX003 (ip), vehicle: Klucel (hydroxypropylcellulose) (HPC).
The mark [13] stands for this setting: dose: 100.0 mg/kg/injection, schedule: Q04DX002 (ip), vehicle: Klucel (hydroxypropylcellulose) (HPC).
The mark [14] stands for this setting: dose: 200.0 mg/kg/injection, schedule: Q04DX002 (ip), vehicle: Klucel (hydroxypropylcellulose) (HPC).
The mark [15] stands for this setting: dose: 100.0 mg/kg/injection, schedule: Q04DX003 (ip), vehicle: saline with Tween-80.
The mark [16] stands for this setting: dose: 200.0 mg/kg/injection, schedule: Q04DX003 (ip), vehicle: saline with Tween-80.
Where [17] appears, read: dose: 400.0 mg/kg/injection, schedule: Q04DX003 (ip), vehicle: saline with Tween-80.
Setting [18] is: dose: 100.0 mg/kg/injection, schedule: Q01DX001 (ip), vehicle: Klucel (hydroxypropylcellulose) (HPC).
Setting [19] is: dose: 200.0 mg/kg/injection, schedule: Q01DX001 (ip), vehicle: Klucel (hydroxypropylcellulose) (HPC).
Where [20] appears, read: dose: 400.0 mg/kg/injection, schedule: Q01DX009 (ip), vehicle: saline.

From PubChem BioAssay AID248 (DTP/NCI, 2004) come the findings set out here.

Where “and” joins values, the source holds several entries; their conditions need not be identical. Equal values may be shown once. Inconclusive results and toxic doses are left out.

With `Cc1ncc(CCl)c(CCl)c1O`, the T/C by setting is: under setting [1], 95 % of control; under setting [2], 92 % of control; under setting [3], 98 % of control; under setting [4], 97 % of control; under setting [5], 97 % of control.

Turning to `CN(Nc1c([N+](=O)[O-])cc([N+](=O)[O-])cc1[N+](=O)[O-])c1cccc2ccccc12`, the T/C under setting [6] is 106 % of control; the T/C under setting [7] was 97 % of control; the T/C under setting [8] was 98 % of control; the T/C under setting [9] is 97 % of control; the T/C under setting [10] is 98 % of control; the T/C under setting [11] is 102 % of control. Besides, under setting [12], the T/C was 90 % of control.

As to `CCOC(=O)N1CCC2(CC1)CC(=O)N(N1CCCCCC1)C2=O`, the T/C is 93 % of control under setting [13] and 93 % of control under setting [14].

With `BrC1(Br)C2CC3C(CC21)C1CC2C(CC31)C2(Br)Br` (configuration not stated), the T/C is, setting by setting: (dose: 100.0 mg/kg/injection, schedule: Q01DX009 (ip), vehicle: saline with Tween-80) 97 % of control; under setting [15], 94 % of control; (dose: 200.0 mg/kg/injection, schedule: Q01DX009 (ip), vehicle: saline with Tween-80) 96 % of control; under setting [16], 95 % of control; (dose: 400.0 mg/kg/injection, schedule: Q01DX009 (ip), vehicle: saline with Tween-80) 105 % of control; under setting [17], 92 % of control.

With `O=C(CCCC(=O)N/N=C/c1ccc2c(c1)CCC2)N/N=C/c1ccc2c(c1)CCC2`, the T/C was 95 % of control under setting [15], 97 % of control under setting [16] and 90 % of control under setting [17].

Regarding `COc1cc2c(cc1OC)C(CCN1C(=O)c3ccccc3C1=O)=NCC2`, the T/C was 97 % of control (dose: 25.0 mg/kg/injection, schedule: Q01DX009 (ip), vehicle: saline); 101 % of control under setting [1]; 97 % of control under setting [3].

On to `COc1ccc(CC2C(=O)NC(C)C(=O)N(C)C3C(=O)N(C)C(Cc4ccc(O)c(c4)Oc4ccc(cc4)C3O)C(=O)NC(C)C(=O)NC(C)C(=O)N2C)cc1` (configuration not stated) (tested in a mixture with another compound), for which the T/C is 112 % of control (dose: 0.25 mg/kg/injection, schedule: Q01DX009 (ip), vehicle: saline); 114 % of control (dose: 0.5 mg/kg/injection, schedule: Q01DX009 (ip), vehicle: carboxymethylcellulose (CMC)); 122 % of control (dose: 0.5 mg/kg/injection, schedule: Q01DX009 (ip), vehicle: saline); 115 % of control (dose: 1.0 mg/kg/injection, schedule: Q01DX009 (ip), vehicle: carboxymethylcellulose (CMC)); 120 % of control (dose: 1.0 mg/kg/injection, schedule: Q01DX009 (ip), vehicle: saline); 117 % of control (dose: 2.0 mg/kg/injection, schedule: Q01DX009 (ip), vehicle: carboxymethylcellulose (CMC)). The T/C (dose: 2.0 mg/kg/injection, schedule: Q01DX009 (ip), vehicle: saline) is 117 % of control.

In the case of `COc1ccc(SC2CCCCC2OS(C)(=O)=O)cc1` (configuration not stated), the T/C is 107 % of control under setting [6]; 102 % of control (dose: 50.0 mg/kg/injection, schedule: Q04DX003 (ip), vehicle: Klucel (hydroxypropylcellulose) (HPC)); 106 % of control under setting [18]; 109 % of control under setting [7]; 106 % of control under setting [8]; 95 % of control under setting [19]. In addition, the T/C is 98 % of control under setting [9] and 104 % of control under setting [10].

Regarding `S=c1nc[nH]c2ccccc12`, the T/C under setting [7] is 93 % of control; the T/C under setting [8] is 91 % of control; the T/C under setting [9] was 95 % of control; the T/C under setting [10] is 94 % of control; the T/C under setting [11] is 88 % of control; the T/C under setting [12] was 98 % of control.

As to `COc1cc2c(cc1OC)C(OC)N(C)c1c-2ccc2cc3c(cc12)OCO3` (configuration not stated), the T/C runs as follows: (dose: 5.0 mg/kg/injection, schedule: Q01DX009 (ip), vehicle: Klucel (hydroxypropylcellulose) (HPC)) 106 % of control; (dose: 10.0 mg/kg/injection, schedule: Q01DX009 (ip), vehicle: Klucel (hydroxypropylcellulose) (HPC)) 106 % of control; (dose: 10.0 mg/kg/injection, schedule: Q01DX009 (ip), vehicle: saline) 123 % of control; (dose: 20.0 mg/kg/injection, schedule: Q01DX009 (ip), vehicle: Klucel (hydroxypropylcellulose) (HPC)) 95 % of control; (dose: 20.0 mg/kg/injection, schedule: Q01DX009 (ip), vehicle: steriod suspending solution) 163 % of control; (dose: 20.0 mg/kg/injection, schedule: Q04DX003 (ip), vehicle: saline) 123 % of control. The T/C runs as follows: (dose: 40.0 mg/kg/injection, schedule: Q01DX009 (ip), vehicle: Klucel (hydroxypropylcellulose) (HPC)) 113 % of control; (dose: 40.0 mg/kg/injection, schedule: Q04DX003 (ip), vehicle: saline) 121 % of control; (dose: 80.0 mg/kg/injection, schedule: Q01DX009 (ip), vehicle: Klucel (hydroxypropylcellulose) (HPC)) 111 % of control; (dose: 80.0 mg/kg/injection, schedule: Q04DX003 (ip), vehicle: saline) 124 % of control; under setting [13], 118 % of control and 119 % of control; under setting [8], 116 % of control. Also, the T/C is, setting by setting: (dose: 160.0 mg/kg/injection, schedule: Q01DX009 (ip), vehicle: Klucel (hydroxypropylcellulose) (HPC)) 109 % of control; (dose: 160.0 mg/kg/injection, schedule: Q04DX003 (ip), vehicle: saline) 112 % of control; under setting [9], 122 % of control; under setting [14], 123 % of control; under setting [10], 111 % of control; (dose: 320.0 mg/kg/injection, schedule: Q01DX009 (ip), vehicle: Klucel (hydroxypropylcellulose) (HPC)) 111 % of control. The T/C under setting [11] was 124 % of control; the T/C (dose: 400.0 mg/kg/injection, schedule: Q04DX002 (ip), vehicle: Klucel (hydroxypropylcellulose) (HPC)) was 152 % of control; the T/C under setting [12] was 106 % of control.

`O=C(CCCCC(=O)Nc1ccc(C(=O)Nc2cc(C3=NCCN3)cc(C3=NCCN3)c2)cc1)Nc1ccc(C(=O)Nc2cc(C3=NCCN3)cc(C3=NCCN3)c2)cc1`: the T/C by setting is: (dose: 35.0 mg/kg/injection, schedule: Q01DX Z (ip), vehicle: saline) 102 % of control; (dose: 55.0 mg/kg/injection, schedule: Q01DX Z (ip), vehicle: saline) 103 % of control.

In the case of `O=P(N1CC1)(N1CC1)C12CC3CC(CC(C3)C1)C2`, the T/C (dose: 25.0 mg/kg/injection, schedule: Q01DX009 (ip), vehicle: saline with Tween-80) was 170 % of control and the T/C (dose: 50.0 mg/kg/injection, schedule: Q01DX009 (ip), vehicle: saline with Tween-80) was 243 % of control.

As for `O=S(=O)(O)CCCCO`, the T/C under setting [2] is 98 % of control; the T/C under setting [3] was 95 % of control; the T/C under setting [4] is 95 % of control; the T/C under setting [5] is 100 % of control; the T/C under setting [20] was 95 % of control; the T/C (dose: 400.0 mg/kg/injection, schedule: Q04DX003 (ip), vehicle: saline) was 97 % of control.

For `CCCC(O)C(CC)CO` (configuration not stated), the T/C is 102 % of control under setting [2], 100 % of control under setting [4] and 104 % of control under setting [20].

As to `CC(C)(C)C(=O)C/C=N/Nc1ccc([N+](=O)[O-])cc1[N+](=O)[O-]`, the T/C is 96 % of control (dose: 100.0 mg/kg/injection, schedule: Q01DX001 (ip), vehicle: saline); 106 % of control (dose: 200.0 mg/kg/injection, schedule: Q01DX001 (ip), vehicle: saline); 100 % of control (dose: 400.0 mg/kg/injection, schedule: Q01DX001 (ip), vehicle: saline).

With `COc1ccc(-n2c(=O)c(N=Nc3ccccc3OC)c(O)n(-c3ccc(C)cc3)c2=S)cc1`, the T/C reads like this: (dose: 50.0 mg/kg/injection, schedule: Q01DX001 (ip), vehicle: Klucel (hydroxypropylcellulose) (HPC)) 92 % of control; under setting [18], 89 % of control; under setting [19], 91 % of control.
